Assay results published in article PMC7349874, “High Content Screening Using New U2OS Reporter Cell Models Identifies Harmol Hydrochloride as a Selective and Competitive Antagonist of the Androgen Receptor” (Cells, 2020).
Counter-ions that a name gives are not always drawn. Like-named read-outs stand apart in the source and are kept apart here.

Tests used:
[1] = biological target: T1, full-length wild-type AR (hAR) (Homo sapiens, UniProt P10275); test: Transactivation (luciferase) assay in U2OS-hAR-ARE-Luc reporter cells, screen and validation; format: cell-based; settings: for Results of 1st screen on AR: 0.3, 1, 3, 10 µM, 16 h, hit = AR transcriptional activity changed by more than 50% dose-dependently, <20% effect in control cells; for Nature of AR inhibition (competitive or non-competitive): 1 nM versus 100 nM R1881
T1 sequence (P10275 1-920): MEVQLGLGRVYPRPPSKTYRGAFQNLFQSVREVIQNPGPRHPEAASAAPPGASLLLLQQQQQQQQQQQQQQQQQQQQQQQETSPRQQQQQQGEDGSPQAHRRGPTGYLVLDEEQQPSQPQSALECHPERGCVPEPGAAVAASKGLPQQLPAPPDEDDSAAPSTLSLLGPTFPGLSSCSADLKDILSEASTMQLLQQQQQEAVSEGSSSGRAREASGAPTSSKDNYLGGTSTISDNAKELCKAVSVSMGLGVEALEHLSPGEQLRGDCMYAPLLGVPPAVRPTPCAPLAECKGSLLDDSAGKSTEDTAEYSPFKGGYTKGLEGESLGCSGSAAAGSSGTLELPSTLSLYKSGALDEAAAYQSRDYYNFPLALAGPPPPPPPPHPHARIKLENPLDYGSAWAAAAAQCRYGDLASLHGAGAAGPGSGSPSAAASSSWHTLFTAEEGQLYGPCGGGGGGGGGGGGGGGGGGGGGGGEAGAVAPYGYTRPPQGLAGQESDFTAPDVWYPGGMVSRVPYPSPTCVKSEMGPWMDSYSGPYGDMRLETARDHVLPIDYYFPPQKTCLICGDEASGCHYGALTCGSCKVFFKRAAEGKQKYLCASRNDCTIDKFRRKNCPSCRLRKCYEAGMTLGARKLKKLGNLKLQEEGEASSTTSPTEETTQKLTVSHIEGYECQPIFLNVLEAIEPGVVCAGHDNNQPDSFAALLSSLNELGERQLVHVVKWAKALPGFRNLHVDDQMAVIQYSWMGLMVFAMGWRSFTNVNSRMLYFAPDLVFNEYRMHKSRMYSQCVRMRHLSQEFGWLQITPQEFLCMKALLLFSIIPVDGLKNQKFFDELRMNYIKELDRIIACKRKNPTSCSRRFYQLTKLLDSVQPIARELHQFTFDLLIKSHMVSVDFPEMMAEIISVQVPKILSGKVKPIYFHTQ
Protocol: U2OS-hAR-ARE(Rad9)-Luc and U2OS-hARv7-ARE(PB)-Luc were then used to screen the Prestwick phytochemical library®, containing 320 natural compounds, at four concentrations (0.3, 1, 3, 10 µM) in duplicate.

[2] = test system: U2OS-ARE-Luc control cells; test: Luciferase activity in U2OS-ARE-Luc control cells; settings: validation, up to 3 µM, 16 h

Row | Compound | Results of 1st screen on AR [1] | further results
1 | COc1ccc(-c2cc(=O)c3c(O)cc(O)cc3o2)cc1 [Acacetin] | No effect | 
2 | C[C@@H]1O[C@@H](O[C@H]2C(=O)c3c(O)cc(O)cc3O[C@@H]2c2ccc(O)c(O)c2)[C@H](O)[C@H](O)[C@H]1O [Astilbin] | No effect | 
3 | COc1ccc2cc3n(c(=O)c2c1OC)CCc1cc2c(cc1-3)OCO2 [Berlambine] | No effect | 
4 | C=C(C)[C@@H]1CC[C@]2(C(=O)O)CC[C@]3(C)[C@H](CC[C@@H]4[C@@]5(C)CC[C@H](O)C(C)(C)[C@@H]5CC[C@]43C)[C@@H]12 [Betulinic acid] | No effect | 
5 | NCCC(O)C(=O)NC1CC(N)C(OC2OC(CN)C(O)[C@H](O)[C@@H]2N)[C@H](OC2O[C@H](CO)[C@@H](O)[C@@H]2O)[C@@H]1O.O=S(=O)(O)O.O=S(=O)(O)O (stereo partly shown) [Butirosin disulfate salt] | No effect | 
6 | NC(N)=NOCC[C@H](N)C(=O)O.O.O=S(=O)(O)O [Canavanine sulfate monohydrate (L,+)] | No effect | 
7 | COc1cc(O)cc(O)c1C(=O)/C=C/c1ccccc1 [Cardamonin] | No effect | 
8 | COc1c2c(cc3oc(CO)cc(=O)c13)O[C@H](C(C)(C)O)C2 [Cimifugin] | No effect | 
9 | C[C@H]1[C@H]2CC[C@H]3[C@@H]4CC=C5C[C@@H](N(C)C)CC[C@]5(C)[C@H]4CC[C@]23CN1C [Conessine] | No effect | 
10 | O=c1c(-c2ccc(O)cc2)coc2cc(O[C@@H]3O[C@H](CO)[C@@H](O)[C@H](O)[C@H]3O)cc(O)c12 [Genistin] | No effect | 
11 | CN(C)Cc1c[nH]c2ccccc12 [Gramine] | No effect | 
12 | COc1ccc2c3c([nH]c2c1)C(C)=NCC3 [Harmaline hydrochloride dihydrate] | No effect | Results of 1st screen on AR ([1]; listed as harmaline): inactive
13 | CC1=NCCc2c1[nH]c1cc(O)ccc21 [Harmalol hydrochloride dihydrate] | No effect | Results of 1st screen on AR ([1]; listed as harmalol): inactive
14 | Cc1nccc2c1[nH]c1ccccc12 [Harmane hydrochloride] | Inhibition | Results of confirmatory screen (validation of AR inhibition) [1]: Not confirmed; Results of 1st screen on AR ([1]; listed as harmane): active inhibitors of AR transcriptional activity
15 | COc1ccc2c(c1)[nH]c1c(C)nccc12 [Harmine hydrochloride] | Inhibition | Effect on luciferase activity in control cells [2]: no effect; Results of confirmatory screen (validation of AR inhibition) [1]: Confirmed; Nature of AR inhibition (competitive or non-competitive) [1]: non-competitive manner; Results of 1st screen on AR ([1]; listed as harmine): active inhibitors of AR transcriptional activity; Results of confirmatory screen (validation of AR inhibition) ([1]; listed as harmine): could impair the transcriptional activity of AR
16 | COc1ccc([C@@H]2CC(=O)c3c(O)cc(O[C@@H]4O[C@H](CO[C@@H]5O[C@@H](C)[C@H](O)[C@@H](O)[C@H]5O)[C@@H](O)[C@H](O)[C@H]4O)cc3O2)cc1O [Hesperidin] | No effect | 
17 | Br.CC[C@H]1CN2CCC1C[C@H]2[C@H](O)c1ccnc2ccc(OC)cc12.O (stereo partly shown) [Hydroquinine hydrobromide hydrate] | No effect | 
18 | O=C1Nc2ccccc2/C1=C1/Nc2ccccc2C1=O [Indirubin] | No effect | 
19 | CC1=C2C(=O)[C@H]3[C@@H](CC=C4C[C@@H](O)CC[C@@]43C)[C@@H]2CC[C@]12O[C@@H]1C[C@H](C)CN[C@H]1[C@H]2C [Jervine] | No effect | 
20 | O=C1CCC[C@@H]2[C@H]3CCCN4CCC[C@@H](CN12)[C@@H]34 [Matrine] | No effect | 

Row | Compound | Results of 1st screen on AR [1] | further results
21 | C=C(C)[C@@H]1[C@H]2OC(=O)[C@@H]1[C@]1(O)C[C@H]3O[C@]34C(=O)O[C@H]2[C@]14C [Picrotoxinin] | No effect | 
22 | CC[C@@H](C)C(=O)O[C@H]1[C@H](O)[C@H]2[C@@H](CN3C[C@@H](C)CC[C@H]3[C@@]2(C)O)[C@@H]2C[C@]34O[C@]5(O)[C@@H](OC(=O)[C@@](C)(O)CC)CC[C@@]3(C)[C@@H]5[C@@H](OC(C)=O)[C@@H](OC(C)=O)[C@H]4[C@@]21O [Protoveratrine A] | No effect | 
23 | CN1[C@@H]2CCC[C@H]1CC(=O)C2.Cl [Pseudopelletierine hydrochloride] | No effect | 
24 | O=c1c2ccccc2nc2n1CCc1c-2[nH]c2ccccc12 [Rutaecarpine] | No effect | 
25 | C[C@@H]1O[C@@H](OC[C@H]2O[C@@H](Oc3c(-c4ccc(O)c(O)c4)oc4cc(O)cc(O)c4c3=O)[C@H](O)[C@@H](O)[C@@H]2O)[C@H](O)[C@H](O)[C@H]1O [Rutin] | No effect | 
26 | OCc1ccccc1O[C@@H]1O[C@H](CO)[C@@H](O)[C@H](O)[C@H]1O [Salicin] | No effect | 
27 | C[C@@H]1NCCc2cc(O)c(O)cc21 [Salsolinol hydrobromide] | No effect | 
28 | COc1ccc2c(OC)c3ccoc3nc2c1OC [Skimmianine] | No effect | 
29 | C[C@@H]1CC[C@@]2(NC1)O[C@H]1C[C@H]3[C@@H]4CC=C5C[C@@H](O)CC[C@]5(C)[C@H]4CC[C@]3(C)[C@H]1[C@@H]2C [Solasodine] | No effect | 
30 | C[N+]1(C)CCC[C@H]1C(=O)[O-].Cl [Stachydrine hydrochloride] | No effect | 
31 | O=c1cc(-c2ccc(O)cc2)oc2c([C@@H]3O[C@H](CO)[C@@H](O)[C@H](O)[C@H]3O)c(O)cc(O)c12 [Vitexin] | No effect | 
32 | C[C@]12CC[C@H](O)C[C@H]1CC[C@@H]1[C@@H]2CC[C@]2(C)[C@@H](C3=CC(=O)OC3)CC[C@]12O [digitoxigenin] | active inhibitors of AR transcriptional activity | 
33 | Cc1c2ccncc2c(C)c2c1[nH]c1ccccc12 [ellipticine] | active inhibitors of AR transcriptional activity | Effect on luciferase activity in control cells [2]: no effect; Nature of AR inhibition (competitive or non-competitive) [1]: non-competitive manner; Results of confirmatory screen (validation of AR inhibition) ([1]; six concentrations, absence or presence of 1 nM or 100 nM R1881): could impair the transcriptional activity of AR
34 | C=CCc1ccc(O)c(-c2ccc(O)c(CC=C)c2)c1 [honokiol] | active inhibitors of AR transcriptional activity | 
35 | COc1ccc2[nH]c3c(c2c1)CCN=C3C [methoxy-6-harmalan] | inactive | 
36 | CN1CCc2cc3c(c4c2C1Cc1ccccc1-4)OCO3 (stereo not shown) [remerine] | active inhibitors of AR transcriptional activity | 
37 | Evodiamine | No effect | 
38 | Foliosidine | No effect | 
39 | Retrorsine | No effect | 
40 | strophantin | active inhibitors of AR transcriptional activity | 
